Reference: US11590148B2, “Use of calcifediol in bariatric surgery patients” (OPKO IRELAND GLOBAL HOLDINGS, LTD., priority 2018, dated 2023)

Columns and labels:
Format in all cases: in vivo, human
[1] = system: patients who are candidates for Roux-en-Y Surgery; assay: Efficacy study in Roux-en-Y surgery patients (6-month)
Procedure: The effectiveness of oral sustained-release 25-hydroxyvitamin D3 in restoring serum total 25-hydroxyvitamin D to optimal levels (>30 ng/mL) and reducing parathyroid hormone level, is examined in a 6-month study of adult male and female patients who are candidates for Roux-en-Y Surgery for weight reduction. In a controlled study, patients are treated with sustained-release 25-hydroxyvitamin D3 (softgel capsules containing 25-hydroxyvitamin D3).
A total of 60 subjects participate in this study, all of whom have serum total 25-hydroxyvitamin D levels less than 30 ng/mL at the time of enrollment and serum intact parathyroid hormone levels greater than 70 pg/mL as evidence of SHPT. All subjects receive a multivitamin therapy including calcium (up to 1,000 mg daily) and cholecalciferol (3000 IU daily) following surgery, and abstain from receiving other Vitamin D therapy and significant sun exposure. Serum total 25-hydroxyvitamin D, serum intact parathyroid hormone, serum calcium, serum phosphorus, urinary calcium, urinary phosphorus, and urinary creatinine are measured from the day of surgery, and at monthly intervals following surgery.
After 2 months, the daily calcium dosage is maintained unchanged, and the cholecalciferol supplement is discontinued, while daily administration of sustained-release 25-hydroxyvitamin D3 (softgel capsules containing 30 μg 25-hydroxyvitamin D3) is initiated and continued for four months.

[2] = system: patients having undergone bariatric surgery (bypass of at least the duodenum); assay: Long-term efficacy study in Roux-en-Y surgery patients (one year, randomized, double-blind, vs cholecalciferol)
Procedure: The effectiveness of oral sustained-release 25-hydroxyvitamin D3 in restoring serum total 25-hydroxyvitamin D to optimal levels (>30 ng/mL) and increasing bone mineral density, is examined in a one year study of adult male and female patients having undergone bariatric surgery for weight reduction, wherein the surgery included bypass of at least the duodenum. In a randomized, double-blind controlled study, patients are treated with sustained-release 25-hydroxyvitamin D3 or cholecalciferol.
A total of 200 subjects participate in this study. All subjects participating in this study are aged 18 years or older, have bone mineral density T-scores between −2.0 and −4.0 as assessed by dual energy x-ray absorptiometry (DEXA), and have serum total 25-hydroxyvitamin D levels less than 30 ng/mL at the time of enrollment. All subjects receive a multivitamin therapy including calcium (up to 1,000 mg daily) and either cholecalciferol (3000 IU daily) or multiple sustained-release 25-hydroxyvitamin D3 (softgel capsules containing 30 μg 25-hydroxyvitamin D3), and abstain from receiving other Vitamin D therapy and significant sun exposure at study start and continuing through study termination.
After 3 months, the daily 25-hydroxyvitamin D3 softgel capsule dosage is maintained unchanged in patients whose serum total 25-hydroxyvitamin D is between 50 and 90 ng/mL, and increased by one capsule in patients whose serum total 25-hydroxyvitamin D is below 50 ng/mL.
Serum total 25-hydroxyvitamin D, plasma iPTH, serum calcium, serum phosphorus, urinary calcium, urinary phosphorus, and urinary creatinine are measured from the day of surgery, and at monthly intervals. Bone mineral density at four sites (total hip, femoral neck, ⅓radius, and lumbar spine) is determined at quarterly intervals by DEXA.

[3] = system: patients with intractable VDI having undergone bariatric surgery; assay: Long-term efficacy study in bariatric surgery patients (52-week, ERC)
Procedure: The effectiveness of oral extended-release 25-hydroxyvitamin D3 (ERC) in raising serum total 25-hydroxyvitamin D to ≥30 ng/mL and reducing plasma iPTH by at least 30% from pre-treatement baseline is examined in a 52-week study of male and female patients aged at least 18 years, with intractable VDI, and having undergone bariatric surgery. In a randomized, double-blind controlled study, patients receive ERC or matching placebo.
Subjects are without any disease state or physical condition that might impair evaluation of safety or which would interfere with study participation, including having serum albumin ≤3.0 g/dL; and serum transaminase (alanine aminotransferase [ALT], glutamic-pyruvic transaminase [SGPT], aspartate aminotransferase [AST] or glutamic-oxaloacetic transaminase [SGOT])>2.5 times the upper limit of normal at screening.
When otherwise confirmed eligible at Visit 1, if taking more than 1,500 mg per day of elemental calcium (from diet and supplements), subjects reduce calcium use (to ≤1,500 mg per day) for the duration of the study.
When otherwise confirmed eligible at Visit 1, if taking bone metabolism therapies that may interfere with study endpoints, subjects discontinue use of these agents for the duration of the study. […]
Blood samples are collected at weekly, biweekly or monthly intervals during the pre-treatment period, the 52-week treatment period, the 6-week post-treatment FU period, and at early termination (ET), if applicable. Key parameters analyzed in the collected samples include: plasma iPTH, serum calcium (corrected for serum albumin), serum phosphorus, serum total 25-hydroxyvitamin D, serum calcifediol, serum 1,25-dihydroxyvitamin D3, and serum 24,25-dihydroxyvitamin D3 (24,25D3). Vital signs (VS), and AEs are monitored at each study visit. Other parameters monitored less frequently include brief physical examinations (PEs) and clinical laboratory tests (hematology and clinical chemistries). […] Additional parameters, including serum FGF23 and serum bone turnover markers are monitored at specified intervals. […]

[4] = months 0-2, cholecalciferol 3000 IU daily
[5] = time zero and months 1 and 2, cholecalciferol 3000 IU daily following surgery
[6] = after 12 months of treatment, DEXA
[7] = once stable dosing has been achieved

SMILES: C=C1CC[C@H](O)C/C1=C/C=C1\CCC[C@]2(C)[C@@H]([C@H](C)CCCC(C)C)CC[C@@H]12 [cholecalciferol]
- change in mean serum total 25-hydroxyvitamin D level following surgery [1, 4]: only a moderate increase
- change in serum intact parathyroid hormone level following surgery [1, 4]: no significant difference
- group mean serum intact parathyroid hormone level [1, 5]: greater than 70 pg/mL
- group mean serum total 25-hydroxyvitamin D level [1, 5]: less than 30 ng/mL
- change in bone mineral density [2, 6]: insignificant changes or reductions
- incidence of hypocalcemia [2, 7]: occur more frequently
- severity / occurrence of secondary hyperparathyroidism [2, 7]: occur more frequently
- change in bone mineral density [3, 6]: insignificant changes or reductions
- incidence of hypocalcemia [3, 7]: occur more frequently
- severity / occurrence of secondary hyperparathyroidism [3, 7]: occur more frequently
